{"source": "paper PMC7391767", "about": "“Molecular mechanisms underlying menthol binding and activation of TRPM8 ion channel” (Nature Communications, 2020)", "type_in_all_cases": "cell-based", "key": {"wild-type TRPM8 [1]": {"molecular_target": "T1, wild-type TRPM8 (Mus musculus, UniProt Q8R4D5)", "T1 construct": "expressed in transfected cells; host or cells: HEK293T", "test": "whole-cell patch-clamp recording of ligand activation", "details": "WT", "experimental": "Murine TRPM8 was used in this study. Point mutations were made by Fast Mutagenesis Kit V2 (SBS Genetech). Primers used to generate point mutations are summarized in Supplementary Table 2.\nCells were transiently transfected with cDNA constructs by Lipofectamine 3000 (Life Technologies) following the manufacturer’s protocol. Patch-clamp recordings were performed 1–2 days after transfection.\n(§1) Patch-clamp recordings were performed with a HEKA EPC10 amplifier controlled by PatchMaster software (HEKA). Whole-cell recordings were performed at ±80 mV. Patch pipettes were prepared from borosilicate glass and fire-polished to resistance of ~4 MΩ. For whole-cell recording, serial resistance was compensated by 60%. For single-channel recordings, patch pipettes were fire-polished to a higher resistance of 6-to-10 MΩ and then recorded in the inside-out configuration. To maximize the chance of obtaining a patch with only one channel, single-channel recordings were performed about 8 h after transfection. A solution with 130 mM NaCl, 10 mM glucose, 0.2 mM EDTA, and 3 mM HEPES (pH 7.2) was used in both bath and pipette for either whole-cell or single-channel recordings. Membrane potential was clamped at +80 mV for single-channel recordings. Current was sampled at 10 kHz and filtered at 2.9 kHz. All recordings were performed at room temperature (22 °C) with the maximum variation of 1 °C.\n(§2) Ligands such as menthol and its analogs were perfused to membrane patch by a gravity-driven system (RSC-200, Bio-Logic). Bath and ligand solution were delivered through separate tubes to minimize the mixing of solutions. Patch pipette was placed in front of the perfusion tube outlet.\nData from whole-cell recordings were analyzed in Igor Pro version 6.1 (WaveMatrix). EC50 values were derived from fitting a Hill equation to the concentration–response relationship. […] To distinguish these possibilities, dissociation constant (Kd) for ligand binding was estimated assuming the following gating scheme:1 C0↔KdC1↔LO, where L is the equilibrium constant for the final closed-to-open transition."}, "TRPM8 F839A": {"molecular_target": "T2, TRPM8 F839A (Mus musculus, UniProt Q8R4D5, F839A)", "T2 construct": "expressed in transfected cells; host or cells: HEK293T", "T2 sequence (Q8R4D5 whole entry F839A)": "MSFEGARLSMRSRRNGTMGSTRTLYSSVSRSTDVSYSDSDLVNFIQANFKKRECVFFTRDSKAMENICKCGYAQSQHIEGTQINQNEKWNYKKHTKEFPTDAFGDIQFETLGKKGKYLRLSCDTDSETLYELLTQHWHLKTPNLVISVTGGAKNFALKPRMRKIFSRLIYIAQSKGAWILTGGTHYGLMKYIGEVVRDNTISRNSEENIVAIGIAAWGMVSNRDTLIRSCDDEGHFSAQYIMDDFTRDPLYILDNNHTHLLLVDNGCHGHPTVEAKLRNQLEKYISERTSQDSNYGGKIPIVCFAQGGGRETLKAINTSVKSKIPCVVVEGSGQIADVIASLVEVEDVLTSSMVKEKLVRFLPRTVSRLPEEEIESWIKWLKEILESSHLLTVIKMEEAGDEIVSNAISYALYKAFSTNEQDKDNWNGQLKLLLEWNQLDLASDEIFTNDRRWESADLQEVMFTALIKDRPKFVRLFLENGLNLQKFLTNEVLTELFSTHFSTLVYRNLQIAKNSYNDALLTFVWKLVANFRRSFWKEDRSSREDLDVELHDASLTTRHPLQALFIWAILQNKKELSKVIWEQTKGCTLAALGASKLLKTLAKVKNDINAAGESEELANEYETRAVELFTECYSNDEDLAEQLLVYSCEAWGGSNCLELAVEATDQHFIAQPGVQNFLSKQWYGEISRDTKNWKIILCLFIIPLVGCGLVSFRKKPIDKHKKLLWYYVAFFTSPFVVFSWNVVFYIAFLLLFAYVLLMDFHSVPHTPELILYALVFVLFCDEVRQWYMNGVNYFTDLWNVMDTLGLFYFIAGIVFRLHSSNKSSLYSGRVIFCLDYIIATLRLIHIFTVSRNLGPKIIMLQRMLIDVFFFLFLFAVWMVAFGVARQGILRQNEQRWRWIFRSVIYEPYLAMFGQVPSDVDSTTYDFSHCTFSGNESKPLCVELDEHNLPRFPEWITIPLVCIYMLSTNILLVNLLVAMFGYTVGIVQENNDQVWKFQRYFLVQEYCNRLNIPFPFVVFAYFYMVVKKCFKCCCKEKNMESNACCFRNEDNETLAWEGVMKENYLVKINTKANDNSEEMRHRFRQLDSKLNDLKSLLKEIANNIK", "test": "whole-cell patch-clamp and thermodynamic mutant cycle analysis", "experimental": "(§3) Murine TRPM8 was used in this study. Point mutations were made by Fast Mutagenesis Kit V2 (SBS Genetech). Primers used to generate point mutations are summarized in Supplementary Table 2. All mutations were confirmed by sequencing.\n(§4) HEK293T cells purchased from Kunming Cell Bank, Kunming Institute of Zoology, Chinese Academy of Sciences (ATCC, CRL-3216) were cultured in Dulbecco’s modified Eagle’s medium supplemented with 20 mM L-glutamine and 10% fetal bovine serum. Cells were transiently transfected with cDNA constructs by Lipofectamine 3000 (Life Technologies) following the manufacturer’s protocol. Patch-clamp recordings were performed 1–2 days after transfection.\nas §1, §2\n(§5) Data from whole-cell recordings were analyzed in Igor Pro version 6.1 (WaveMatrix). EC50 values were derived from fitting a Hill equation to the concentration–response relationship. Changes in EC50 by point mutation may be caused by either perturbation of ligand bind or channel gating or both. To distinguish these possibilities, dissociation constant (Kd) for ligand binding was estimated assuming the following gating scheme:1 C0↔KdC1↔LO, where L is the equilibrium constant for the final closed-to-open transition.\n(§6) To perform thermodynamic cycle analysis, Kd values of four channel-ligand combinations (WT channel, menthol: Kd _1; Mutant channel, menthol: Kd _2; WT channel, menthol analog: Kd _3; Mutant channel, menthol analog: Kd _4) were determined separately. The strength of coupling was determined by the coupling energy (kT multiplied by LnΩ, where k is the Boltzmann constant and T is temperature in Kelvin). LnΩ was calculated by Eq. (2) as[51]2 LnΩ=LnKd_1⋅Kd_4/Kd_2⋅Kd_3."}, "TRPM8 I846V": {"molecular_target": "T3, TRPM8 I846V (Mus musculus, UniProt Q8R4D5, I846V)", "T3 construct": "expressed in transfected cells; host or cells: HEK293T", "T3 sequence (Q8R4D5 whole entry I846V)": "as the sequence (Q8R4D5 whole entry F839A) above, with A839F, I846V counted along it", "test": "whole-cell patch-clamp and thermodynamic mutant cycle analysis", "experimental": "as §3, §4, §1, §2, §5, §6"}, "TRPM8 L843A": {"molecular_target": "T4, TRPM8 L843A (Mus musculus, UniProt Q8R4D5, L843A)", "T4 construct": "expressed in transfected cells; host or cells: HEK293T", "T4 sequence (Q8R4D5 whole entry L843A)": "as the sequence (Q8R4D5 whole entry F839A) above, with A839F, L843A counted along it", "test": "whole-cell patch-clamp and thermodynamic mutant cycle analysis", "experimental": "as §3, §4, §1, §2, §5, §6"}, "TRPM8 L843I": {"molecular_target": "T5, TRPM8 L843I (Mus musculus, UniProt Q8R4D5, L843I)", "T5 construct": "expressed in transfected cells; host or cells: HEK293T", "T5 sequence (Q8R4D5 whole entry L843I)": "as the sequence (Q8R4D5 whole entry F839A) above, with A839F, L843I counted along it", "test": "whole-cell patch-clamp and thermodynamic mutant cycle analysis", "experimental": "as §3, §4, §1, §2, §5, §6"}, "TRPM8 L843V": {"molecular_target": "T6, TRPM8 L843V (Mus musculus, UniProt Q8R4D5, L843V)", "T6 construct": "expressed in transfected cells; host or cells: HEK293T", "T6 sequence (Q8R4D5 whole entry L843V)": "as the sequence (Q8R4D5 whole entry F839A) above, with A839F, L843V counted along it", "test": "whole-cell patch-clamp and thermodynamic mutant cycle analysis", "experimental": "as §3, §4, §1, §2, §5, §6"}, "TRPM8 V775A": {"molecular_target": "T7, TRPM8 V775A (Mus musculus, UniProt Q8R4D5, V775A)", "T7 construct": "expressed in transfected cells; host or cells: HEK293T", "T7 sequence (Q8R4D5 whole entry V775A)": "as the sequence (Q8R4D5 whole entry F839A) above, with V775A, A839F counted along it", "test": "whole-cell patch-clamp and thermodynamic mutant cycle analysis", "experimental": "as §3, §4, §1, §2, §5, §6"}, "TRPM8 Y745F": {"molecular_target": "T8, TRPM8 Y745F (Mus musculus, UniProt Q8R4D5, Y745F)", "T8 construct": "expressed in transfected cells; host or cells: HEK293T", "T8 sequence (Q8R4D5 whole entry Y745F)": "as the sequence (Q8R4D5 whole entry F839A) above, with Y745F, A839F counted along it", "test": "whole-cell patch-clamp and thermodynamic mutant cycle analysis", "experimental": "as §3, §4, §1, §2, §5, §6"}, "wild-type TRPM8 [2]": {"molecular_target": "T1, wild-type TRPM8", "test": "open probability from noise analysis of macroscopic current and single-channel recordings", "details": "wild-type TRPM8; near saturating concentration (menthol 500 µM)", "experimental": "as §1\nFrom single-channel recordings, the open probability (Po) was calculated after events detection with a hidden Markov approach in the software QuB[49] (http://www.qub.buffalo.edu/). A dead time of 0.32 ms was imposed. As a complementary approach, Po was also estimated from noise analysis[52] of whole-cell recordings. Briefly, the mean current amplitude (I), the squared deviations in current amplitude from the mean value (σ^2), and the single-channel current (i) were measured experimentally from a membrane patch of ion channels. Then the number of ion channels clamped in that patch (N) was determined as3 N=I^2/i⋅I−σ^2.\nThe maximum current when each of ion channel is at the open state with a Po of 1 is equal to i × N. Then the open probability was calculated as the ratio between the measured macroscopic current and the maximum current calculated by noise analysis. To estimate channel conductance, current amplitude was estimated from all-point histogram of single-channel recordings."}, "[3]": {"details": "mutant cycle menthol vs labelled analog"}}, "note": "“And” between values parts separate entries of the source, which are not always exact repeats. Equal entries are not always repeated. Where two headings read alike, the source gives them in different places.", "data": [{"compound": "CC1CCCC(O)C1", "note": "(stereo not shown) [3-methylcyclohexanol]", "values": [{"measurement": "L (equilibrium constant between closed and open states upon ligand binding), Ave", "setting": "wild-type TRPM8 [1]", "result": 0.1737}, {"measurement": "L, single recording", "setting": "wild-type TRPM8 [1]", "result": "0.1532 and 0.192 and 0.1757"}, {"measurement": "Ratio X1 (Kd menthol / Kd labelled analog)", "setting": "wild-type TRPM8 [1]", "result": 1.53}, {"measurement": "concentration–response curve value, ave", "setting": "wild-type TRPM8 [1]; 100 microM", "result": 0.03758}, {"measurement": "concentration–response curve value, single recording", "setting": "wild-type TRPM8 [1]; 100 microM", "result": 0.03758}, {"measurement": "concentration–response curve value, ave", "setting": "wild-type TRPM8 [1]; 500 microM", "result": 0.06444}, {"measurement": "concentration–response curve value, single recording", "setting": "wild-type TRPM8 [1]; 500 microM", "result": "0.0748 and 0.0637 and 0.05481"}, {"measurement": "concentration–response curve value, ave", "setting": "wild-type TRPM8 [1]; 1000 microM", "result": 0.104}, {"measurement": "concentration–response curve value, single recording", "setting": "wild-type TRPM8 [1]; 1000 microM", "result": "0.09939 and 0.1207 and 0.09185"}, {"measurement": "concentration–response curve value, ave", "setting": "wild-type TRPM8 [1]; 5000 microM", "result": 0.1359}, {"measurement": "concentration–response curve value, single recording", "setting": "wild-type TRPM8 [1]; 5000 microM", "result": "0.1092 and 0.1503 and 0.1483"}, {"measurement": "concentration–response curve value, ave", "setting": "wild-type TRPM8 [1]; 10000 microM", "result": 0.1449}, {"measurement": "concentration–response curve value, single recording", "setting": "wild-type TRPM8 [1]; 10000 microM", "result": "0.1156 and 0.169 and 0.1502"}, {"measurement": "Kd", "setting": "wild-type TRPM8 [1]; calculated from concentration–response curves (EC50 and Po max), read-out: Kd, Ave", "result": 631, "unit": "µM"}, {"measurement": "Kd", "setting": "wild-type TRPM8 [1]; read-out: Kd, single recording", "result": "270 µM and 723 µM and 899 µM"}, {"measurement": "Ratio X2 (Kd menthol / Kd labelled analog)", "setting": "TRPM8 F839A", "result": 0.34}, {"measurement": "Omega(X1/X2)", "setting": "TRPM8 F839A; menthol vs labelled analog", "result": 4.45}, {"measurement": "Coupling Energy", "setting": "TRPM8 F839A; [3]", "result": 1.49, "unit": "kT"}, {"measurement": "L (equilibrium constant between closed and open states upon ligand binding), Ave", "setting": "TRPM8 I846V", "result": 5.486}, {"measurement": "Ratio X2 (Kd menthol / Kd labelled analog)", "setting": "TRPM8 I846V", "result": 0.0226}, {"measurement": "concentration–response curve value, ave", "setting": "TRPM8 I846V; 100 microM", "result": 0.2999}, {"measurement": "concentration–response curve value, single recording", "setting": "TRPM8 I846V; 100 microM", "result": "0.4 and 0.341 and 0.2563 and 0.2026"}, {"measurement": "concentration–response curve value, ave", "setting": "TRPM8 I846V; 500 microM", "result": 0.4287}, {"measurement": "concentration–response curve value, single recording", "setting": "TRPM8 I846V; 500 microM", "result": "0.5097 and 0.4021 and 0.4664 and 0.3363"}, {"measurement": "concentration–response curve value, ave", "setting": "TRPM8 I846V; 5000 microM", "result": 0.6797}, {"measurement": "concentration–response curve value, single recording", "setting": "TRPM8 I846V; 5000 microM", "result": "0.6614 and 0.7654 and 0.6405 and 0.6515"}, {"measurement": "concentration–response curve value, ave", "setting": "TRPM8 I846V; 10000 microM", "result": 0.686}, {"measurement": "concentration–response curve value, single recording", "setting": "TRPM8 I846V; 10000 microM", "result": "0.6689 and 0.7334 and 0.6291 and 0.7125"}, {"measurement": "Kd", "setting": "TRPM8 I846V; calculated from concentration–response curves, read-out: Kd, Ave", "result": 5290, "unit": "µM"}, {"measurement": "concentration–response curve value, ave", "setting": "TRPM8 I846V; concentration cell empty", "result": 0.07916}, {"measurement": "Omega(X1/X2)", "setting": "TRPM8 I846V; menthol vs labelled analog", "result": 67.65}, {"measurement": "Coupling Energy", "setting": "TRPM8 I846V; [3]", "result": 4.21, "unit": "kT"}, {"measurement": "Kd", "setting": "TRPM8 I846V; read-out: Kd, single recording", "result": "4560 µM and 1600 µM and 2660 µM and 12400 µM"}, {"measurement": "Ratio X2 (Kd menthol / Kd labelled analog)", "setting": "TRPM8 L843A", "result": 10.91}, {"measurement": "Omega(X1/X2)", "setting": "TRPM8 L843A; menthol vs labelled analog", "result": 0.14}, {"measurement": "Coupling Energy", "setting": "TRPM8 L843A; [3]", "result": 1.96, "unit": "kT"}, {"measurement": "Ratio X2 (Kd menthol / Kd labelled analog)", "setting": "TRPM8 L843I", "result": 0.32}, {"measurement": "Omega(X1/X2)", "setting": "TRPM8 L843I; menthol vs labelled analog", "result": 4.84}, {"measurement": "Coupling Energy", "setting": "TRPM8 L843I; [3]", "result": 1.58, "unit": "kT"}, {"measurement": "Ratio X2 (Kd menthol / Kd labelled analog)", "setting": "TRPM8 L843V", "result": 1.21}, {"measurement": "Omega(X1/X2)", "setting": "TRPM8 L843V; menthol vs labelled analog", "result": 1.27}, {"measurement": "Coupling Energy", "setting": "TRPM8 L843V; [3]", "result": 0.24, "unit": "kT"}, {"measurement": "Ratio X2 (Kd menthol / Kd labelled analog)", "setting": "TRPM8 V775A", "result": 3.60}, {"measurement": "Omega(X1/X2)", "setting": "TRPM8 V775A; menthol vs labelled analog", "result": 0.43}, {"measurement": "Coupling Energy", "setting": "TRPM8 V775A; [3]", "result": 0.86, "unit": "kT"}, {"measurement": "Ratio X2 (Kd menthol / Kd labelled analog)", "setting": "TRPM8 Y745F", "result": 5.57}, {"measurement": "Omega(X1/X2)", "setting": "TRPM8 Y745F; menthol vs labelled analog", "result": 0.28}, {"measurement": "Coupling Energy", "setting": "TRPM8 Y745F; [3]", "result": 1.29, "unit": "kT"}, {"measurement": "maximum open probability (Po max)", "setting": "wild-type TRPM8 [2]", "result": "much reduced"}]}]}
